Assay results from patent US20250283037A1, “METHODS FOR STIMULATING AND TRANSDUCING T CELLS” (Juno Therapeutics GmbH, priority 2021, published 2025).

Legend:
[1] = tested on: CD4+ and CD8+ T cells; test: Viability and live cell count of engineered T cell composition; type: cell-based, human; settings: with vs without compound during production
[2] = tested on: anti-CD19 CAR T cells; test: Long-term stimulation with anti-idiotype antibody beads, expansion and survival; type: cell-based, human; settings: 12 days, anti-ID antibody beads
Experimental: (§1) CD4+ and CD8+ T cells were isolated by immunoaffinity-based enrichment from leukapheresis samples from human donor subjects. At day 1, isolated CD4+ and CD8+ T cells were mixed 1:1 and stimulated with an anti-CD3/anti-CD28 oligomeric stimulatory reagent generated as described in Example 1 in serum-free media supplemented with recombinant IL-2 (100 IU/mL), recombinant IL-7 (600 IU/mL), and recombinant IL-15 (100 IU/mL) with or without 1 μM of 2-(3-hydroxyphenyl)-9-(2-isopropylphenyl)-8-oxo-8,9-dihydro-7H-purine-6-carboxamide (Compound 63). The T cells cultured with our without Compound 63 were incubated overnight (approximately 24 hr) at 37° C., and were then transduced in serum-free culture media with our without Compound 63 ([…]) with a lentiviral vector encoding an anti-CD19 CAR. The CAR contained an scFv antigen-binding domain specific for CD19 (derived from FMC63), a CD28 transmembrane region, a 4-1BB costimulatory signaling region, and a CD3-zeta derived intracellular signaling domain. […]
To further assess the functional activity of the cells, the generated T cell compositions were stimulated long-term over 12 days with beads conjugated with an anti-idiotype (ID) antibody against the anti-CD19 CAR, and expansion and survival of the cells were monitored (FIG. 17F, left panel) and total expansion metric calculated by area under the growth curve (FIG. 17F, right panel, AUC).

[3] = tested on: mTOR; test: Intracellular S6 phosphorylation in engineered T cells; type: cell-based, human; settings: 1 μM (also printed 1 mM) during production; live CD8+ T cells
Experimental: CD4+ and CD8+ T cells were isolated by immunoaffinity-based enrichment from leukapheresis samples from human donor subjects. […] The T cells cultured with our without Compound 63 were incubated overnight (approximately 24 hr) at 37° C., and were then transduced in serum-free culture media with our without Compound 63 ([…]) with a lentiviral vector encoding an anti-CD19 CAR. […] Following transduction, the cells were incubated in serum free media without recombinant cytokines (basal media) and with or without Compound 63 (1 mM) and allowed to incubate at about 37.0° C. in an incubator for up to 96 hours after initiation of the stimulation with the anti-CD3/anti-CD28 oligomeric stimulatory reagent (until day 5 of the process). […] Following incubation CD4+ and CD8+ T cells from each donor were harvested, formulated, and cryofrozen. The cryofrozen engineered CD4+ and CD8+ T cells were thawed, and T cells were assessed for intracellular S6 phosphorylation, a ribosomal protein and marker of mTOR inhibition, and co-stained for surface expression of CD4 or CD8 and for CCR7 and CD45RA as markers of memory subsets. pS6 expression in live CD8+ T cells by memory subsets was shown by the expression of CCR7 and CD45RA as shown in FIG. 16A.

[4] = tested on: CAR-T cells; test: Intracellular caspase expression in thawed CAR-T cells; type: cell-based, human; settings: vs cells not incubated with compound
Experimental: as §1, with “domain. Following transduction, the cells were incubated in serum free media without recombinant cytokines (basal media) and with or without Compound 63 (1 mM) and allowed to incubate at about 37.0° C. in an incubator for up to 96 hours after initiation of the stimulation with the anti-CD3/anti-CD28 oligomeric stimulatory reagent (until day 5 of the process).” for “domain.”

[5] = tested on: CD8+ T cells and CD4+ T cells; test: CD27/CCR7 phenotypic subset profile by flow cytometry; type: cell-based, human
Experimental: as §1, with “domain. Following transduction, the cells were incubated in serum free media without recombinant cytokines (basal media) and with or without Compound 63 (1 mM) and allowed to incubate at about 37.0° C. in an incubator for up to 96 hours after initiation of the stimulation with the anti-CD3/anti-CD28 oligomeric stimulatory reagent (until day 5 of the process).” for “domain.”

[6] = tested on: CD4+ and CD8+ T cells; test: Intracellular cytokines after PMA/Ionomycin and Golgi inhibitor; type: cell-based, human; settings: PMA/Ionomycin stimulation; engineered CD8+ and CD4+ T cells
Experimental: as §1, with “domain. Following transduction, the cells were incubated in serum free media without recombinant cytokines (basal media) and with or without Compound 63 (1 mM) and allowed to incubate at about 37.0° C. in an incubator for up to 96 hours after initiation of the stimulation with the anti-CD3/anti-CD28 oligomeric stimulatory reagent (until day 5 of the process).” for “domain.”

[7] = molecular target: T1, mutein streptavidin designated Strep-tactin® (e.g. containing the sequence set forth in SEQ ID NO: 4) (Streptomyces avidinii, UniProt P22629, E68V/S69T/V71R); settings: general statement in the description, no experiment described; read-out: binding affinity KD for Strep-tactin®; cited from earlier work
T1 construct: N-terminal methionine in place of Ala13 (N)
T1 sequence (P22629 other isoform, or with tags, fused parts or gaps E68V/S69T/V71R): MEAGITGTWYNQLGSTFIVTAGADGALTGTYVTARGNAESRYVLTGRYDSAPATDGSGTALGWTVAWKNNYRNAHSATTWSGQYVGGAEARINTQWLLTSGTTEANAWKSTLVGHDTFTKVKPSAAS

Row | Compound | percentage of viable cells over time [1] | total number of viable cells over time [1] | function (expansion, AUC) following long-term CAR-specific stimulation [2] | pS6 mean fluorescence intensity of memory T cell subsets (Temra, Tem, Tcm) [3] | intracellular caspase expression [4] | phenotypic subset profile by CD27 and/or CCR7 expression [5] | level of intracellular cytokines IL2, IFNg, or TNF [6] | Kd [7] [µM]
1 | CC(C)c1ccccc1-n1c(=O)[nH]c2c(C(N)=O)nc(-c3cccc(O)c3)nc21 [Compound 63, 2-(3-hydroxyphenyl)-9-(2-isopropylphenyl)-8-oxo-8,9-dihydro-7H-purine-6-carboxamide] | no significant effect | no significant effect | improved function | decreased | less | did not substantially alter | substantially improved | 
2 | WSHPQFEK [Strep-tag® II] |  |  |  |  |  |  |  | ~1
